# Source: US11963966B2, “Compositions and methods for treating ovarian tumors” (Dana-Farber Cancer Institute, Inc., priority 2017, dated 2024)
# Columns and labels:
# [1] = system: platinum-resistant ex vivo spheroid cultures of patients DF3266, DF3288, DF3291; experiment: Drug sensitivity testing with the growth in low attachment (GILA) assay; assay type: cell-based; settings: for Sensitivity of spheroid cultures: all spheroid cultures, similar dose range, cisplatin excepted in DF3266 and DF3288
# Experimental: (§1) FIG. 6A-FIG. 6G are a series of graphs and images depicting the impact of JAK/STAT-inhibition on spheroid formation, invasion and killing ex vivo and in vitro. FIG. 6A a histogram (FIG. 11B), showing drug screening with 14 compounds (at 1 μM) inhibiting the JAK/STAT pathway in OVACR4. Relative viability compared to DMSO control measured by CTG. […] The same library was screened in 2D-cultures of OVACR4 (FIG. 11A), and 2D-cultures of OVACR8 (FIG. 11C) and 3D-cultures of OVACR8 (FIG. 11D). FIG. 6B is a series of plots showing drug sensitivity testing using the GILA assay in platinum-resistant ex vivo spheroid cultures of patients DF3291 and DF3266, The X-axis indicates the log μM concentration of drugs indicated in the legend, Y-axis indicates the percentage of luminescence signal as indicator for viability relatively to DMSO treated cells. In both patients, half maximal effective concentration (EC50) were ˜100 nM and ˜10 nM, respectively, while other drugs routinely used for the treatment of (platinum-resistant) ovarian cancer had EC50>10 μM. FIG. 6C is a series of images of microscopic analysis of spheroids with different drug treatments to highlight the morphologic changes during therapy with drugs listed. Inhibition of JAK/STAT pathway disrupts ex vivo spheroid cultures. […] The X-axis indicates established ovarian cancer cell line ID. Y-axis indicates the relative number of formed spheroids when treated with either JSI-124 or carboplatin compared to untreated parental controls. Error bars indicate the standard deviation from the mean number of spheroids. […] JAK/STAT inhibition prevents spheroid formation. […] The Y-axis indicates the clearance ability (using arbitrary units). 20 spheroids clusters were analyzed for each iteration. Data is shown as mean (horizontal bar), interquartile range (box), and minimum and maximum (whiskers). Statistical analysis was performed using 1-way analysis of variance (ANOVA) and post hoc Tukey-Kramer **P<0.05. […] FIG. 6G is a histogram showing the inhibition of the JAK/STAT pathway.
# Single-cell RNA-sequencing was performed on these platinum-resistant patient samples, using the growth in low attachment (GILA) assay (Rotem et al., 2015 Proc. Natl. Acad. Sci. U.S.A, 112:5708-5713; B. Izar and A. Rotem, 2016 Curr. Protoc. Mol. Biol., 116:28.8.1-28.8.12). […] In contrast, all spheroid cultures were resistant to carboplatin, cisplatin, olaparib and paclitaxel at a similar dose range, with the exception of cisplatin with an EC50 of ˜10 μM in patients DF3266 and DF3288.
# [2] = system: established ovarian cancer cell lines (OVCAR4, OVCAR8, OVASHO, TYKNU, Kuramachi); experiment: Spheroid formation in low adherent surface culture; assay type: cell-based; settings: same treatment doses as JSI-124
# Experimental: as §1, with “pathway. […]” for “pathway.”
# [3] = system: PDX models DF20, DF68, DF101; experiment: Carboplatin treatment of ovarian cancer PDX models, tumor volume and BLI; assay type: in vivo, mice; settings: followed by subsequent tumor outgrowth
# Experimental: FIG. 4A-FIG. 4E are a series of graphs depicting comparisons of expression profiles across patient-derived xenograft (PDX) models before and after recurrence. […] FIG. 4A is a plot of tumor burden of PDX model DF20. PDX model DF20 response to carboplatin was assessed. Triangles indicate vehicle mice, squares indicate relapsed mice, and asterisks indicates MRD animals. MRD and relapsed tumors were treated with three cycles of carboplatin and harvested for single-cell RNA-sequencing at the last indicated time point in this graph. FIG. 4B is a heatmap showing the similarities and clustering of average expression profiles for each of the samples corresponding to three PDX models, with samples collected before treatments (vehicle), MRD and full relapse for each of the models. FIG. 4C is a plot of expression of highly-abundant transcripts in single-cells indicate disproportionally high expression of key nodes of the JAK/STAT pathway, including STAT2 and STAT3, and others.
# Next, platinum-resistance was modeled using PDX-models. […] Single-cells were harvested for sequencing from untreated animals (vehicle) and the carboplatin-treated animals were monitored for tumor regression and relapse. […] Accordingly, gene sets were detected which were consistently altered across two or three samples of MRD (FIG. 4D) or relapse (FIG. 4E), and contribute to drug resistance or tumor relapse. […]
Structure (SMILES),Sensitivity of spheroid cultures [1],Effect on spheroids formation [2],"Tumor response (tumor volume, BLI signal) [3]","EC50 ([1]; patients DF3266 and DF3288, read-out: EC50)"
N.N.O=C([O-])C1(C(=O)[O-])CCC1.[Pt+2] [carboplatin],resistant,modest to no effects,brisk response,–
N.N.[Cl][Pt][Cl] [cisplatin],resistant,–,–,~10 µM
O=C(c1cc(Cc2n[nH]c(=O)c3ccccc23)ccc1F)N1CCN(C(=O)C2CC2)CC1 [olaparib],resistant,–,–,–
CC(=O)O[C@H]1C(=O)[C@@]2(C)[C@H]([C@H](OC(=O)c3ccccc3)[C@]3(O)C[C@H](OC(=O)[C@H](O)[C@@H](NC(=O)c4ccccc4)c4ccccc4)C(C)=C1C3(C)C)[C@]1(OC(C)=O)CO[C@@H]1C[C@@H]2O [paclitaxel],resistant,–,–,–
